According to patent US20170101431A1, “NUCLEOSIDE DERIVATIVES FOR THE TREATMENT OF CANCER” (IDENIX PHARMACEUTICALS LLC, priority 2014, published 2017):

Legend:
Type in all cases: cell-based
[1] = system: CCRF-CEM; assay: In vitro inhibition, CellTiter-Glo (CTG) assay, CCRF-CEM; conditions: 72 hr exposure
Protocol: (§1) Cells were grown in RPMI-1640 supplemented with L-Glutamine and 10% FBS of the following cancer cell lines:
(§2) CCRF-CEM; CCRF-CEM-cytarabine resistant; HL-60;
(§3) 18, 96 well plates of each cell line were seeded with the optimized number of cells per well in a total volume of 50 μL per well. The plates were left overnight. Plate wells were seeded with 100 μL media for media control. The following day, cells were exposed to test compounds as described below. At the same time as drug exposure, a CTG assay was conducted on the 18th plate for the 0 hr count.
(§4) The compounds were added to cells and medium already on the plate to give desired final concentrations. 50 μL media were added to cell control wells, and 50 μL of mix added to vehicle control wells. 10 μM Doxorubicin was added to appropriate wells as control. Cells exposed to test compound were incubated at 37° C. for 72 hr followed by a CTG assay.
(§5) At the end of the 72 hr exposure period, plates were removed for a CellTiter-Glo (CTG) assay from a 37° C., 5% CO2 incubator and placed on the bench at room temperature for 30 mins. 100 μL of CellTiter-Glo reagent was added and mixed for 2 mins, followed by a further 10 min incubation at room temperature. Luminescence was recorded using Synergy 4.0.

[2] = system: HL-60; assay: In vitro inhibition, CellTiter-Glo (CTG) assay, HL-60; conditions: HL-60, 72 hr exposure
Protocol: as §1, §2, §3, §4, §5

[3] = system: CCRF-CEM-cytarabine resistant; assay: In vitro inhibition, CellTiter-Glo (CTG) assay, CCRF-CEM-cytarabine resistant; conditions: 72 hr exposure
Protocol: as §1, §2, §3, §4, §5

| IC50 [1] | IC50 [2] | IC50 [3] | IC50 ([2]; Homo sapiens, HL-60, 72 h) | IC50 ([3]; 72 h) | SMILES | IC50 ([1]; Homo sapiens) | IC50 ([2]; Homo sapiens) |
| --- | --- | --- | --- | --- | --- | --- | --- |
| < 1 µM | 1 to 10 µM | 10 to 25 µM |  |  | Nc1ccn([C@@H]2O[C@H](COP(=O)(NCc3ccccc3)OCc3ccc([N+](=O)[O-])o3)[C@@H](O)[C@@H]2O)c(=O)n1 (single isomer, unassigned) [25 (diastereoisomer 2)] |  |  |
|  |  |  | < 1 µM | 1 to 10 µM | C[C@H](NP1(=O)OC[C@H]2O[C@@H](n3cnc4c(N)nc(Cl)nc43)[C@@H](F)[C@@H]2O1)C(=O)OCc1ccccc1 (single isomer, unassigned) [Compound 26a] | < 1 µM |  |
| < 1 µM | < 1 µM | 1 to 10 µM |  |  | C[C@H](NP1(=O)OC[C@H]2O[C@@H](n3cnc4c(N)nc(Cl)nc43)[C@@H](F)[C@@H]2O1)C(=O)OCc1ccccc1 (single isomer, unassigned) [Compound 26b] |  |  |
|  |  | 25 to 100 µM | 1 to 10 µM |  | CCOC(=O)[C@H](C)NP1(=O)OC[C@H]2O[C@@H](n3cnc4c(N)nc(Cl)nc43)[C@@H](F)[C@@H]2O1 (stereo partly drawn) [Compound 10, Ethyl (2S)-2-[[(4aR6R,7S,7aR)-6-(6-amino-2-chloro-purin-9-yl)-7-fluoro-2-oxo-4a,6,7,7a-tetrahydro-4H-furo[3.2-d][1,3,2]dioxaphosphinin-2-yl]amino]propanoate] | < 1 µM |  |
| < 1 µM | < 1 µM | 1 to 10 µM |  |  | CCOC(=O)[C@H](C)NP1(=O)OC[C@H]2O[C@@H](n3cnc4c(N)nc(Cl)nc43)[C@@H](F)[C@@H]2O1 (stereo partly drawn) [Compound 11, Ethyl (2S)-2-[[(4aR6R,7S,7aR)-6-(6-amino-2-chloro-purin-9-yl)-7-fluoro-2-oxo-4a,6,7,7a-tetrahydro-4H-furo[3.2-d][1,3,2]dioxaphosphinin-2-yl]amino]propanoate] |  |  |

The remaining lines, values behind:

| SMILES | IC50 [1] | IC50 [2] | IC50 [3] | IC50 ([2]; Homo sapiens, HL-60, 72 h) | IC50 ([3]; 72 h) | IC50 ([1]; Homo sapiens) | IC50 ([2]; Homo sapiens) |
| --- | --- | --- | --- | --- | --- | --- | --- |
| C[C@H](NP(=O)(OCc1ccc([N+](=O)[O-])s1)OC[C@H]1O[C@@H](n2ccc(N)nc2=O)[C@@H](O)[C@@H]1O)C(=O)OCc1ccccc1 (single isomer, unassigned) [24f (diastereoisomer 2)] | < 1 µM | 10 to 25 µM | 10 to 25 µM |  |  |  |  |
| Nc1ccn([C@@H]2O[C@H](COP(=O)(NCc3ccccc3)OCc3ccc([N+](=O)[O-])o3)[C@@H](O)[C@@H]2O)c(=O)n1 (single isomer, unassigned) [25 (diastereoisomer 1)] |  |  |  | 1 to 10 µM | 10 to 25 µM | < 1 µM |  |
| Nc1ccn([C@@H]2O[C@H](COP(=O)(OCc3cnc([N+](=O)[O-])s3)OCc3cnc([N+](=O)[O-])s3)[C@@H](O)[C@@H]2O)c(=O)n1 [Compound 24b, [(2R,3S,4S,5R)-5-(4-amino-2-oxo-pyrimidin-1-yl)-3,4-dihydroxy-tetrahydrofuran-2-yl]methyl bis[(2-nitrothiazol-5-yl)methyl]phosphate] |  |  | 10 to 25 µM |  |  | < 1 µM | < 1 µM |
| Cn1c(COP(=O)(OCc2cnc([N+](=O)[O-])s2)OC[C@H]2O[C@@H](n3ccc(N)nc3=O)[C@@H](O)[C@@H]2O)cnc1[N+](=O)[O-] (stereo partly drawn) [Compound 24c, [(2R,3S,4S,5R)-5-(4-amino-2-oxo-pyrimidin-1-yl)-3,4-dihydroxy-tetrahydrofuran-2-yl]methyl (3-methyl-2-nitro-imidazol-4-yl)methyl (2-nitrothiazol-5-yl)methyl phosphate] |  |  | 10 to 25 µM |  |  | < 1 µM | < 1 µM |
| Nc1ccn([C@@H]2O[C@H](COP(=O)(OCc3ccc([N+](=O)[O-])o3)OCc3ccc([N+](=O)[O-])o3)[C@@H](O)[C@@H]2O)c(=O)n1 [Compound 24e, [(2R,3S,4S,5R)-5-(4-amino-2-oxo-pyrimidin-1-yl)-3,4-dihydroxy-tetrahydrofuran-2-yl]methyl bis[(5-nitro-2-furyl)methyl]phosphate] |  |  | 10 to 25 µM |  |  | < 1 µM | < 1 µM |
